Results taken from publication PMC3775607 (Chembiochem : a European journal of chemical biology, 2012).

Assays:
[1] = molecular target: T1, p38α (Mus musculus, UniProt P47811); assay: competition with covalent DRS probe […] at […], in-gel fluorescence; assay type: binding
[2] = molecular target: T1, p38α; assay: radiometric kinase assay with GST-ATF2; assay type: biochemical

T1 sequence (P47811 2-360): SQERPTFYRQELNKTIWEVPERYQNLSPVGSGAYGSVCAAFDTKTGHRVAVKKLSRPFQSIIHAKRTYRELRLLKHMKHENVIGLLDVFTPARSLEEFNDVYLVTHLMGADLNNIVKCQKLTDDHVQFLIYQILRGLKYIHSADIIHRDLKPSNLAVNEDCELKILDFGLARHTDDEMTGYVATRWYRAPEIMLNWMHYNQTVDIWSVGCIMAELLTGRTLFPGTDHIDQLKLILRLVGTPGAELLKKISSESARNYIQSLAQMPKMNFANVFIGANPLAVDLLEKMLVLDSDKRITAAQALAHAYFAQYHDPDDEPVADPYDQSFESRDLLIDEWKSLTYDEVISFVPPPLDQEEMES

Row | SMILES | competition with covalent DRS probe 3 at 200 μM, in-gel fluorescence [1] | IC50 [2] [µM]
1 | O=C(/C=C/c1ccc(O)c(O)c1)OCCc1ccccc1 [CAPE, caffeic acid phenethyl ester] | rooperol shows the strongest inhibition, followed closely by the honey bee propolis-derived caffeic acid phenethyl ester (CAPE | –
2 | Oc1ccc(C#CC/C=C/c2ccc(O)c(O)c2)cc1O [rooperol] | – | 18.6
